Measurements published in publication PMC7026589, “Sensitive CometChip assay for screening potentially carcinogenic DNA adducts by trapping DNA repair intermediates” (Nucleic Acids Research, 2019).
Like-named read-outs stand apart in the source and are kept apart here.

Legend:
HepaRG™ cells = system: HepaRG™ cells
Text: Cryopreserved HepaRG™ (HPRGC10), a terminally differentiated hepatic cell line, was purchased from ThermoFisher Scientific (Waltham, MA). HepaRG™ was thawed and cultured according to manufacturer's instructions. Briefly, the general purpose working medium was WEM supplemented with 1X GlutaMAX™ and 1X HepaRG™ Thaw, Plate, & General Purpose Medium Supplement. The metabolism working medium was WEM supplemented with 1X GlutaMAX™ and HepaRG™ Maintenance/Metabolism Medium Supplement. HepaRG™ cells were thawed in the general purpose working medium and plated in a 96-well plate coated with collagen I at 100 000 cells/well. One day after plating, the general purpose working medium was changed to the metabolism working medium. The metabolism working medium was renewed on day 4 and day 6 after plating. On day 7, the cells were treated in the metabolism working medium.
To load cells into microwells, ∼2000–200 000 cells in suspension were placed into each macrowell, and the chip was incubated at 37°C in the presence of 5% CO2 for 15 min. Cell were loaded into microwells by gravity, and excess cells were then washed off with PBS by shear force. The chip was covered with a layer of overlay agarose (1% w/v low-melting point agarose solution in PBS, kept molten at 43°C until use). For complete gelation of the overlay agarose, the chip was kept at room temperature for two minutes followed by 2 min at 4°C.
The alkaline comet assay was performed as previously ([15],[79]). Sodium chloride (NaCl, 7581), disodium EDTA (Na2EDTA, 4931), and sodium hydroxide pellets (NaOH, 7708) were purchased from VWR, Radnor, PA. Trizma® base (T1503), Trizma® HCl (T5941) and Triton X-100 (X-100) were obtained from MilliporeSigma, St. Louis, MO. 10 000× SYBR™ Gold nucleic acid gel stain was obtained from ThermoFisher Scientific, Waltham, MA.
The alkaline lysis buffer (pH ∼ 10) was a solution of 2.5 M NaCl, 100 mM Na2EDTA, 10 mM Trizma® base, and 1% (v/v) Triton X-100 dissolved in deionized H2O (dI H2O). […] The neutralization buffer (pH ∼ 7.5) was prepared by dissolving Trizma® HCl in distilled H2O to a final concentration of 0.4 M.
(§1) Cells encapsulated in CometChip were lysed in the alkaline lysis buffer overnight at 4°C. The nuclei were unwound in the alkaline unwinding buffer for 40 min at 4°C, and the DNA was electrophoresed in the same buffer at the same temperature for 30 min at 1 V/cm and ∼300 mA. The CometChip was then washed three times in neutralization buffer by submerging for 5 min each time.
(§2) The DNA on CometChip was stained for 15 min at room temperature with 1× of SYBR™ Gold diluted in PBS, protected from light. Fluorescent images of the comets were captured at 40× magnification using an epifluorescence microscope (Nikon Eclipse 80i, Nikon Instruments, Inc., Melville, NY, USA) with a 480 nm excitation filter. Image acquisition was achieved by automatic scanning using a motorized XY stage. Comet images were automatically analyzed using Guicometanalyzer, a custom software developed in MATLAB (The MathWorks Inc., Natick, MA, USA) as previously described ([15]). For each condition, 100 comets or more were analysed. Outputs from Guicometanalyzer were processed and imported to a spreadsheet (Microsoft Excel, Microsoft Office Suite 2016) using Comet2Excel, an in-house software developed in Python (Python Software Foundation, Python version 2.7.10). Software is freely available upon request.
For this experiment, the comets were analysed using Trevigen® Comet Analysis Software.
A vehicle control condition was included by diluting DMSO in cell culture medium to get a final concentration of 0.5%. Cells were incubated with the test compound for 24 h at 37°C in the presence of 5% CO2.
HepaRG™ were incubated with the test compound for 24 h at 37°C in the presence of 5% CO2. A vehicle control (1% DMSO) was included.

Xpa−/− mouse hepatocytes = settings: presence of HU/AraC, 24 h, compared with WT
Experimental: as §1
as §2, with “Outputs from Guicometanalyzer were processed and imported to a spreadsheet (Microsoft Excel, Microsoft Office Suite 2016) using Comet2Excel, an in-house software developed in Python (Python Software Foundation, Python version 2.7.10). Software is freely available upon request.” left out
(§3) Primary mouse hepatocytes were obtained from 10 to 14 weeks old C57Bl6 mice using a standard two-step collagenase liver perfusion procedure with minor changes ([80],[81]). […] Cell viability and cell number were analyzed using an automated Trypan Blue exclusion system [Vi-CELL™ cell counter (Beckman Coulter Life Sciences, Brea, CA)]. […]

[1] = system: primary mouse hepatocytes; settings: WT primary mouse hepatocytes; absence of HU/AraC; 24 h
Experimental: as §1
as §2, with “Outputs from Guicometanalyzer were processed and imported to a spreadsheet (Microsoft Excel, Microsoft Office Suite 2016) using Comet2Excel, an in-house software developed in Python (Python Software Foundation, Python version 2.7.10). Software is freely available upon request.” left out
as §3

CYP1A2 [2] = molecular target: T1, CYP1A2 (Homo sapiens, UniProt P05177); type: cell-based; parameters: endogenous in cells; settings: HepaRG; B[a]P 24 h
Experimental: (§4) The CYP450-Glo™ CYP3A4 assay with luciferin-IPA (V9001) and the CYP450-Glo™ CYP1A2 assay with luciferin-1A2 (V8421) were purchased from Promega, Madison, WI. The activity levels of CYP3A4 and CYP1A2 in cells were measured according to the manufacturer's protocol for non-lytic cell-based assays. Luminescent signals were recorded using a SpectraMax M2e microplate reader (Molecular Devices, Sunnyvale, CA, USA). Control wells with no cells were included to obtain background luminescence. The net signal for each sample was obtained by subtracting the background luminescence value.
(§5) CYP3A4 or CYP1A2 activity per cell can be obtained by normalizing CYP450-Glo™ values with cell numbers. After a sample was analyzed for CYP3A4 or CYP1A2 activity, the CTG® assay was performed to obtain an estimate of the number of viable cells in the sample. The result from CYP450-Glo™ was then divided by the CTG® value to obtain the average CYP3A4 or CYP1A2 activity per cell.

CYP1A2 [3] = molecular target: T1, CYP1A2; type: cell-based; parameters: endogenous in cells; host or cells: HepG2; settings: HepG2; B[a]P 24 h
Experimental: as §4, §5

T1 sequence (P05177 whole entry): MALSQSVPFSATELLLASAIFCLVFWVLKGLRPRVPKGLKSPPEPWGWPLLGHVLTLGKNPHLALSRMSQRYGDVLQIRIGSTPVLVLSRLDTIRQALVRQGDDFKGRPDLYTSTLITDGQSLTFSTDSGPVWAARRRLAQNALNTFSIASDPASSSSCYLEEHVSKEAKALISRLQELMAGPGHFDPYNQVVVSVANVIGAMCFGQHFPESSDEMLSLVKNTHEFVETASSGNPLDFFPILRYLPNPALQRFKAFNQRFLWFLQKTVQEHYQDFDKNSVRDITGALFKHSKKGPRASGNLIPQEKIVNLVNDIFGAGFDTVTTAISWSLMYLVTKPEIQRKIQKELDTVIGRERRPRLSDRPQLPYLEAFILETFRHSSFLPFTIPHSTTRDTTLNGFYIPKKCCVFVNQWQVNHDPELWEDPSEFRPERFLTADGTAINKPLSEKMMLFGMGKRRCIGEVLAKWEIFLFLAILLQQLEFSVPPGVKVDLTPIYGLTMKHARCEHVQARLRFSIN

c1ccc2c(c1)cc1ccc3cccc4ccc2c1c34 [B[a]P, Benzo[a]pyrene]
Genotoxicity Alkaline CometChip HepaRG (+ HU + AraC) +/− (HepaRG™ cells): +
Genotoxicity Alkaline CometChip HepaRG +/− (HepaRG™ cells): −
SSBs (Xpa−/− mouse hepatocytes): not significantly
SSBs [1]: significant, but relatively small, increase in SSBs
CYP1A2 activity level (induction) (CYP1A2 [2]): induced in a dose-dependent manner
CYP1A2 activity level (induction) (CYP1A2 [3]): induced in a dose-dependent manner
